Test results published in PubChem BioAssay (NCI).
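How tested: cells in 96-well plates exposed to compound for 48 hours at five concentrations. GI50: concentration for 50% inhibition of growth. TGI denotes the concentration required for complete inhibition of growth.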

Tests used:
Experiment in all cases: NCI tumour cell line growth inhibition, 48 h
HOP-62 NSCLC = tested on: HOP-62 NSCLC
OVCAR-5 ovarian = tested on: OVCAR-5 ovarian
T-47D breast = tested on: T-47D breast
HS 578T breast = tested on: HS 578T breast
EKVX NSCLC = tested on: EKVX NSCLC
HCT-116 colon = tested on: HCT-116 colon
HT29 colon = tested on: HT29 colon
MDA-MB-435 = tested on: MDA-MB-435
SK-MEL-28 melanoma = tested on: SK-MEL-28 melanoma
HCT-15 colon = tested on: HCT-15 colon
KM12 colon = tested on: KM12 colon
CCRF-CEM leukemia = tested on: CCRF-CEM leukemia
UO-31 renal = tested on: UO-31 renal
DU-145 prostate = tested on: DU-145 prostate
HCC-2998 colon = tested on: HCC-2998 colon
A498 renal = tested on: A498 renal
TK-10 renal = tested on: TK-10 renal
M14 melanoma = tested on: M14 melanoma
SNB-19 CNS = tested on: SNB-19 CNS
NCI-H460 lung = tested on: NCI-H460 lung
SF-295 CNS = tested on: SF-295 CNS
IGROV1 ovarian = tested on: IGROV1 ovarian
PC-3 prostate = tested on: PC-3 prostate
OVCAR-3 ovarian = tested on: OVCAR-3 ovarian
BT-549 breast = tested on: BT-549 breast
NCI-H522 lung = tested on: NCI-H522 lung
786-0 renal = tested on: 786-0 renal
LOX IMVI melanoma = tested on: LOX IMVI melanoma
SK-MEL-5 melanoma = tested on: SK-MEL-5 melanoma
HOP-92 NSCLC = tested on: HOP-92 NSCLC
SNB-75 CNS = tested on: SNB-75 CNS
OVCAR-4 ovarian = tested on: OVCAR-4 ovarian
MOLT-4 leukemia = tested on: MOLT-4 leukemia
COLO 205 colon = tested on: COLO 205 colon
MDA-MB-468 breast = tested on: MDA-MB-468 breast
UACC-257 melanoma = tested on: UACC-257 melanoma
A549 NSCLC = tested on: A549 NSCLC
MCF7 breast = tested on: MCF7 breast
ACHN renal = tested on: ACHN renal
SK-OV-3 ovarian = tested on: SK-OV-3 ovarian
CAKI-1 renal = tested on: CAKI-1 renal
OVCAR-8 ovarian = tested on: OVCAR-8 ovarian
NCI-H23 lung = tested on: NCI-H23 lung
SF-268 CNS = tested on: SF-268 CNS
SR leukemia = tested on: SR leukemia
RPMI-8226 leukemia = tested on: RPMI-8226 leukemia
HL-60(TB) leukemia = tested on: HL-60(TB) leukemia
K-562 leukemia = tested on: K-562 leukemia
RXF 393 renal = tested on: RXF 393 renal
NCI-H226 lung = tested on: NCI-H226 lung
NCI/ADR-RES ovarian = tested on: NCI/ADR-RES ovarian
MALME-3M melanoma = tested on: MALME-3M melanoma
SF-539 CNS = tested on: SF-539 CNS
SK-MEL-2 melanoma = tested on: SK-MEL-2 melanoma
SN12C renal = tested on: SN12C renal
U251 CNS = tested on: U251 CNS
UACC-62 melanoma = tested on: UACC-62 melanoma
SW-620 colon = tested on: SW-620 colon
MDA-MB-231 breast = tested on: MDA-MB-231 breast

COc1ccc(Cc2nn(CC(=O)N/N=C/c3ccc(Br)cc3)c(=O)c3c(C)noc23)cc1
GI50 (HOP-62 NSCLC): 10.6 µM
TGI (HOP-62 NSCLC): 26.4 µM
GI50 (OVCAR-5 ovarian): 16.8 µM
TGI (OVCAR-5 ovarian): > 100 µM
GI50 (T-47D breast): 0.97 µM
TGI (T-47D breast): 9.48 µM
GI50 (HS 578T breast): 3.61 µM
TGI (HS 578T breast): 61.2 µM
GI50 (EKVX NSCLC): 14.5 µM
TGI (EKVX NSCLC): 83.1 µM
GI50 (HCT-116 colon): 0.81 µM
TGI (HCT-116 colon): 10.3 µM
GI50 (HT29 colon): 5.05 µM
TGI (HT29 colon): > 100 µM
GI50 (MDA-MB-435): 30.5 µM
TGI (MDA-MB-435): > 100 µM
GI50 (SK-MEL-28 melanoma): 36.9 µM
TGI (SK-MEL-28 melanoma): > 100 µM
GI50 (HCT-15 colon): 12.3 µM
TGI (HCT-15 colon): > 100 µM
GI50 (KM12 colon): > 100 µM
TGI (KM12 colon): > 100 µM
GI50 (CCRF-CEM leukemia): 7.87 µM
TGI (CCRF-CEM leukemia): > 100 µM
GI50 (UO-31 renal): 2.98 µM
TGI (UO-31 renal): 15.3 µM
GI50 (DU-145 prostate): 16.1 µM
TGI (DU-145 prostate): > 100 µM
GI50 (HCC-2998 colon): 34.5 µM
TGI (HCC-2998 colon): > 100 µM
GI50 (A498 renal): 3.01 µM
TGI (A498 renal): 8.8 µM
GI50 (TK-10 renal): 10.1 µM
TGI (TK-10 renal): 23.9 µM
GI50 (M14 melanoma): 18.5 µM
TGI (M14 melanoma): > 100 µM
GI50 (SNB-19 CNS): 14.6 µM
TGI (SNB-19 CNS): 33.1 µM
GI50 (NCI-H460 lung): 1.56 µM
TGI (NCI-H460 lung): 16.4 µM
GI50 (SF-295 CNS): 10.3 µM
TGI (SF-295 CNS): 23.4 µM
GI50 (IGROV1 ovarian): 12.4 µM
TGI (IGROV1 ovarian): 32.3 µM
GI50 (PC-3 prostate): 10.4 µM
TGI (PC-3 prostate): > 100 µM
GI50 (OVCAR-3 ovarian): 2.27 µM
TGI (OVCAR-3 ovarian): 10.9 µM
GI50 (BT-549 breast): 18.2 µM
TGI (BT-549 breast): 58 µM
GI50 (NCI-H522 lung): 8.77 µM
TGI (NCI-H522 lung): 41.6 µM
GI50 (786-0 renal): 1.48 µM
TGI (786-0 renal): 6.94 µM
GI50 (LOX IMVI melanoma): 3.54 µM
TGI (LOX IMVI melanoma): 52.8 µM
GI50 (SK-MEL-5 melanoma): > 100 µM
TGI (SK-MEL-5 melanoma): > 100 µM
GI50 (HOP-92 NSCLC): 4.98 µM
TGI (HOP-92 NSCLC): 21.2 µM
GI50 (SNB-75 CNS): 0.287 µM
TGI (SNB-75 CNS): 1.41 µM
GI50 (OVCAR-4 ovarian): 0.511 µM
TGI (OVCAR-4 ovarian): 2.12 µM
GI50 (MOLT-4 leukemia): 7.82 µM
TGI (MOLT-4 leukemia): > 100 µM
GI50 (COLO 205 colon): > 100 µM
TGI (COLO 205 colon): > 100 µM
GI50 (MDA-MB-468 breast): 7.58 µM
TGI (MDA-MB-468 breast): 27.4 µM
GI50 (UACC-257 melanoma): > 100 µM
TGI (UACC-257 melanoma): > 100 µM
GI50 (A549 NSCLC): 1.49 µM
TGI (A549 NSCLC): > 100 µM
GI50 (MCF7 breast): 3.44 µM
TGI (MCF7 breast): > 100 µM
GI50 (ACHN renal): 2.65 µM
TGI (ACHN renal): 11.2 µM
GI50 (SK-OV-3 ovarian): 5.55 µM
TGI (SK-OV-3 ovarian): 20.1 µM
GI50 (CAKI-1 renal): 5.21 µM
TGI (CAKI-1 renal): 19.1 µM
GI50 (OVCAR-8 ovarian): 17.4 µM
TGI (OVCAR-8 ovarian): > 100 µM
GI50 (NCI-H23 lung): 7.06 µM
TGI (NCI-H23 lung): 22.8 µM
GI50 (SF-268 CNS): 14.8 µM
TGI (SF-268 CNS): 52.6 µM
GI50 (SR leukemia): 14.6 µM
TGI (SR leukemia): > 100 µM
GI50 (RPMI-8226 leukemia): 69.9 µM
TGI (RPMI-8226 leukemia): > 100 µM
GI50 (HL-60(TB) leukemia): > 100 µM
TGI (HL-60(TB) leukemia): > 100 µM
GI50 (K-562 leukemia): 14.8 µM
TGI (K-562 leukemia): > 100 µM
GI50 (RXF 393 renal): 2.75 µM
TGI (RXF 393 renal): 11.4 µM
GI50 (NCI-H226 lung): 2.52 µM
TGI (NCI-H226 lung): 13.4 µM
GI50 (NCI/ADR-RES ovarian): 4.6 µM
TGI (NCI/ADR-RES ovarian): > 100 µM
GI50 (MALME-3M melanoma): 5.48 µM
TGI (MALME-3M melanoma): 29.1 µM
GI50 (SF-539 CNS): 11.9 µM
TGI (SF-539 CNS): 25.4 µM
GI50 (SK-MEL-2 melanoma): 16.4 µM
TGI (SK-MEL-2 melanoma): 32.1 µM
GI50 (SN12C renal): 1.63 µM
TGI (SN12C renal): 11.5 µM
GI50 (U251 CNS): 2.03 µM
TGI (U251 CNS): 13.4 µM
GI50 (UACC-62 melanoma): 14.1 µM
TGI (UACC-62 melanoma): > 100 µM
GI50 (SW-620 colon): 3.07 µM
TGI (SW-620 colon): > 100 µM
GI50 (MDA-MB-231 breast): 5.73 µM
TGI (MDA-MB-231 breast): 25.8 µM
